Measurements published in ChEMBL document CHEMBL1201862, “PubChem BioAssay data set” (2004).
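How tested: cells in 96-well plates exposed to compound for 48 hours at five concentrations. GI50 marks 50% less growth.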 Calls of active or inactive are those of the source. Rule as the data show it: active = GI50 up to about 1.1 µM and inactive = higher.

Tests used:
Assay in all cases: inhibition of tumour cell growth, NCI panel, 48 h
[1] = test system: HL-60
[2] = test system: ACHN
[3] = test system: OVCAR-8
[4] = test system: MOLT-4
[5] = test system: SK-MEL-28
[6] = test system: OVCAR-3
[7] = test system: NCI/ADR-RES
[8] = test system: UO-31
[9] = test system: SNB-75
[10] = test system: CAKI-1
[11] = test system: HCT-15
[12] = test system: HT-29
[13] = test system: HOP-62
[14] = test system: EKVX
[15] = test system: SNB-19
[16] = test system: IGROV-1
[17] = test system: SF-268
[18] = test system: HOP-92
[19] = test system: SW-620
[20] = test system: NCI-H23

## CCN(CC)C(=S)N/N=C(\C)c1cccc(C)n1
[1]
  GI50: < 0.01 µM (active)
[2]
  GI50: 0.0184 µM (active)
[3]
  GI50: 0.287 µM (active)
[4]
  GI50: < 0.01 µM (active)
[5]
  GI50: 0.308 µM (active)
[6]
  GI50: < 0.01 µM (active)
[7]
  GI50: < 0.01 µM (active)
[8]
  GI50: 0.133 µM (active)
[9]
  GI50: 4.11 µM (inactive)
[10]
  GI50: 0.31 µM (active)
[11]
  GI50: < 0.0249 µM
[12]
  GI50: < 0.01 µM (active)
[13]
  GI50: 0.102 µM (active)
[14]
  GI50: < 0.01 µM (active)
[15]
  GI50: 0.571 µM (active)
[16]
  GI50: < 0.01 µM (active)
[17]
  GI50: 0.0593 µM (active)
[18]
  GI50: 1.49 µM (inactive)

## CCC(C(C)N1CC(=O)NC(=O)C1)N1CC(=O)NC(=O)C1 (stereo not drawn)
[1]
  GI50: 2.06 µM (inactive)
[19]
  GI50: 17.4 µM (inactive)
[3]
  GI50: > 100 µM (inactive)
[4]
  GI50: 0.69 µM (active)
[5]
  GI50: > 100 µM (inactive)
[20]
  GI50: 29 µM (inactive)
[6]
  GI50: > 100 µM (inactive)
[7]
  GI50: 44.8 µM (inactive)
[8]
  GI50: > 37.5 µM (inactive)
[9]
  GI50: > 48.9 µM (inactive)
[10]
  GI50: > 100 µM (inactive)
[11]
  GI50: > 49.7 µM
[12]
  GI50: 62.1 µM (inactive)
[13]
  GI50: 7.01 µM (inactive)
[14]
  GI50: > 19.7 µM (inactive)
[15]
  GI50: > 100 µM (inactive)
[16]
  GI50: > 100 µM (inactive)
[17]
  GI50: > 87.9 µM (inactive)
[18]
  GI50: > 100 µM (inactive)

## CCCCSCC(NC(=O)/C=C/c1c(C)[nH]c(=O)[nH]c1=O)C(=O)OC (stereo not drawn)
[1]
  GI50: 76.6 µM (inactive)
[19]
  GI50: 78 µM (inactive)
[3]
  GI50: 37.9 µM (inactive)
[4]
  GI50: 50.1 µM (inactive)
[5]
  GI50: 75 µM (inactive)
[20]
  GI50: 90.8 µM (inactive)
[6]
  GI50: 13.2 µM (inactive)
[7]
  GI50: 358 µM (inactive)
[8]
  GI50: 49.4 µM (inactive)
[9]
  GI50: 55.5 µM (inactive)
[10]
  GI50: 32.3 µM (inactive)
[11]
  GI50: 148 µM
[12]
  GI50: 102 µM (inactive)
[13]
  GI50: 70.5 µM (inactive)
[14]
  GI50: 34.2 µM (inactive)
[15]
  GI50: 29 µM (inactive)
[16]
  GI50: 84.5 µM (inactive)
[17]
  GI50: 23 µM (inactive)
[18]
  GI50: 36.1 µM (inactive)

## CC1C/C(=C\c2ccc(O)c(O)c2)C(=O)/C(=C/c2ccc(O)c(O)c2)C1 (stereo not drawn)
[1]
  GI50: 4.93 µM (inactive)
[19]
  GI50: 11.6 µM (inactive)
[2]
  GI50: 8.71 µM (inactive)
[3]
  GI50: 9.04 µM (inactive)
[4]
  GI50: 4.76 µM (inactive)
[5]
  GI50: 7.69 µM (inactive)
[20]
  GI50: 4.14 µM (inactive)
[6]
  GI50: 5.25 µM (inactive)
[7]
  GI50: 18.5 µM (inactive)
[9]
  GI50: 4.73 µM (inactive)
[10]
  GI50: 5.74 µM (inactive)
[11]
  GI50: 8.85 µM
[12]
  GI50: 18 µM (inactive)
[13]
  GI50: 11.3 µM (inactive)
[14]
  GI50: 14.1 µM (inactive)
[15]
  GI50: 10.7 µM (inactive)
[16]
  GI50: 6 µM (inactive)
[17]
  GI50: 6.12 µM (inactive)
[18]
  GI50: 6.18 µM (inactive)

## CC1(C)CC23C4COC(=O)C2CCC1C3CC4=O (stereo not drawn)
[1]
  GI50: 3.06 µM (inactive)
[19]
  GI50: 3.04 µM (inactive)
[3]
  GI50: 10 µM (inactive)
[4]
  GI50: 5.87 µM (inactive)
[5]
  GI50: 6.12 µM (inactive)
[20]
  GI50: 3.27 µM (inactive)
[6]
  GI50: 12.5 µM (inactive)
[7]
  GI50: 7.21 µM (inactive)
[8]
  GI50: 28.6 µM (inactive)
[9]
  GI50: 19.8 µM (inactive)
[10]
  GI50: 5.47 µM (inactive)
[11]
  GI50: 6.52 µM
[12]
  GI50: 22.9 µM (inactive)
[13]
  GI50: 24.4 µM (inactive)
[14]
  GI50: 26.7 µM (inactive)
[15]
  GI50: 28.3 µM (inactive)
[16]
  GI50: 21.9 µM (inactive)
[17]
  GI50: 10.6 µM (inactive)
[18]
  GI50: 8.26 µM (inactive)

## CC(C)=CCC/C(C)=C/CC/C(C)=C/CC/C(=C/CC/C(C)=C\CC/C(C)=C/CC/C(C)=C/CC/C(C)=C/Cc1cc(O)ccc1O)CO
[1]
  GI50: 3.15 µM (inactive)
[19]
  GI50: 8.71 µM (inactive)
[2]
  GI50: 12.4 µM (inactive)
[3]
  GI50: 3.75 µM (inactive)
[5]
  GI50: 2.29 µM (inactive)
[20]
  GI50: 0.979 µM (active)
[6]
  GI50: 4.42 µM (inactive)
[7]
  GI50: 4.51 µM (inactive)
[8]
  GI50: 7.98 µM (inactive)
[9]
  GI50: 4.02 µM (inactive)
[10]
  GI50: 1.71 µM (inactive)
[11]
  GI50: 7.11 µM
[12]
  GI50: 4.52 µM (inactive)
[13]
  GI50: 11.3 µM (inactive)
[14]
  GI50: 12.1 µM (inactive)
[15]
  GI50: 7.1 µM (inactive)
[16]
  GI50: 2.86 µM (inactive)
[17]
  GI50: 2.67 µM (inactive)
[18]
  GI50: 9.59 µM (inactive)
